Experimental data reported in PubChem BioAssay AID2060500 (Molecular Pharmacology Branch, DTP, NCI, 2025).

System: 596521-263-R-J1-PDC complex spheroids, viability % of control
Assay: Anticancer human tumor 596521-263-R-J1-PDC patient-derived soft tissue sarcoma cell line growth inhibition [GQUAD]
Conditions: for IC50: curve of first compound; for viability, T/C: stronger effect = lower value
Method in brief: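 Tumor cells were grown as complex spheroids with HUVEC endothelial cells and mesenchymal stem cells as stroma. G-quadruplex stabilizers were combined with targeted agents over half-log dilutions from near the clinical Cmax, or from 10 microM.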

[1] = second compound 0.0316 µM, first compound 0.0316 µM
[2] = second compound 0.0316 µM, first compound 0.1 µM
[3] = second compound 0.0316 µM, first compound 0.316 µM
[4] = second compound 0.0316 µM, first compound 1 µM
[5] = second compound 0.0316 µM, first compound 3.16 µM
[6] = second compound 0.0316 µM, first compound 10 µM
[7] = second compound 0.1 µM, first compound 0.0316 µM
[8] = second compound 0.1 µM, first compound 0.1 µM
[9] = second compound 0.1 µM, first compound 0.316 µM
[10] = second compound 0.1 µM, first compound 1 µM
[11] = second compound 0.1 µM, first compound 3.16 µM
[12] = second compound 0.1 µM, first compound 10 µM
[13] = second compound 0.316 µM, first compound 0.0316 µM
[14] = second compound 0.316 µM, first compound 0.1 µM
[15] = second compound 0.316 µM, first compound 0.316 µM
[16] = second compound 0.316 µM, first compound 1 µM
[17] = second compound 0.316 µM, first compound 3.16 µM
[18] = second compound 0.316 µM, first compound 10 µM
[19] = second compound 1 µM, first compound 0.0316 µM
[20] = second compound 1 µM, first compound 0.1 µM
[21] = second compound 1 µM, first compound 0.316 µM
[22] = second compound 1 µM, first compound 1 µM
[23] = second compound 1 µM, first compound 3.16 µM
[24] = second compound 1 µM, first compound 10 µM
[25] = second compound 3.16 µM, first compound 0.0316 µM
[26] = second compound 3.16 µM, first compound 0.1 µM
[27] = second compound 3.16 µM, first compound 0.316 µM
[28] = second compound 3.16 µM, first compound 1 µM
[29] = second compound 3.16 µM, first compound 3.16 µM
[30] = second compound 3.16 µM, first compound 10 µM
[31] = second compound 10 µM, first compound 0.0316 µM
[32] = second compound 10 µM, first compound 0.1 µM
[33] = second compound 10 µM, first compound 0.316 µM
[34] = second compound 10 µM, first compound 1 µM
[35] = second compound 10 µM, first compound 3.16 µM
[36] = second compound 10 µM, first compound 10 µM
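Note: spheroids exposed to drugs for 7 days before viability reading.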
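Throughout, for viability, T/C: 100% = DMSO vehicle control viability.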

COc1cc(C2c3cc4c(cc3C(OC3OC5COC(C)OC5C(O)C3O)C3COC(=O)C23)OCO4)cc(OC)c1O (stereo unspecified) + Cc1cnc(CNC(=O)c2c(=O)c3ccc(N4CCCN(C)CC4)nc3n3c2sc2ccccc23)cn1 was tested, and the IC50 (second compound 0.0316 µM) was 2.67 µM, the IC50 (second compound 0.1 µM) was greater than 10 µM and the IC50 (second compound 0.316 µM) was 2.8 µM. It also gave an IC50 (second compound 1 µM) of 1.65 µM, an IC50 (second compound 3.16 µM) of 1.77 µM and an IC50 (second compound 10 µM) of less than 0.0316 µM. The viability, T/C [1] was 99.8%, the viability, T/C [2] was 83.6% and the viability, T/C [3] was 77.8%. The viability, T/C [4] was 53.8%, the viability, T/C [5] was 50.7% and the viability, T/C [6] was 42.4%. The viability, T/C [7] was 91.8%, the viability, T/C [8] was 92% and the viability, T/C [9] was 75.8%. For the same compound, the viability, T/C [10] was 52%, the viability, T/C [11] was 56.6% and the viability, T/C [12] was 45.5%. The viability, T/C [13] was 76.6%, the viability, T/C [14] was 73.3% and the viability, T/C [15] was 81.6%. The viability, T/C [16] was 58%, the viability, T/C [17] was 50.3% and the viability, T/C [18] was 47.8%. For the same compound, the viability, T/C [19] was 65.9%, the viability, T/C [20] was 57.5% and the viability, T/C [21] was 55.5%. For the same compound, the viability, T/C [22] was 52.2%, the viability, T/C [23] was 51.1% and the viability, T/C [24] was 38.1%. It also gave a viability, T/C [25] of 56.3%, a viability, T/C [26] of 52.1% and a viability, T/C [27] of 55%. It also gave a viability, T/C [28] of 46.6%, a viability, T/C [29] of 50.4% and a viability, T/C [30] of 33.1%. For the same compound, the viability, T/C [31] was 48.8%, the viability, T/C [32] was 37.6% and the viability, T/C [33] was 47.1%. It also gave a viability, T/C [34] of 40.7%, a viability, T/C [35] of 43.5% and a viability, T/C [36] of 19.4%.

Work on Cc1cccc(N(C)C(=O)C2C(O)CCN2c2nc(C)cc(C(F)(F)F)c2C#N)c1 (stereo unspecified) + Cc1cnc(CNC(=O)c2c(=O)c3ccc(N4CCCN(C)CC4)nc3n3c2sc2ccccc23)cn1 yielded an IC50 (second compound 0.0316 µM) greater than 10 µM, an IC50 (second compound 0.1 µM) greater than 10 µM and an IC50 (second compound 0.316 µM) greater than 10 µM. It also gave an IC50 (second compound 1 µM) greater than 10 µM, an IC50 (second compound 3.16 µM) greater than 10 µM and an IC50 (second compound 10 µM) of 3.38 µM. The viability, T/C [1] was 123%, the viability, T/C [2] was 98.5% and the viability, T/C [3] was 106%. It also gave a viability, T/C [4] of 98.5%, a viability, T/C [5] of 104% and a viability, T/C [6] of 99.3%. The viability, T/C [7] was 87%, the viability, T/C [8] was 87% and the viability, T/C [9] was 93.8%. The viability, T/C [10] was 92.4%, the viability, T/C [11] was 86.3% and the viability, T/C [12] was 90.9%. For the same compound, the viability, T/C [13] was 74.5%, the viability, T/C [14] was 77.9% and the viability, T/C [15] was 81.7%. For the same compound, the viability, T/C [16] was 80.6%, the viability, T/C [17] was 85.4% and the viability, T/C [18] was 80.6%. The viability, T/C [19] was 63.1%, the viability, T/C [20] was 70.7% and the viability, T/C [21] was 60.7%. For the same compound, the viability, T/C [22] was 64.7%, the viability, T/C [23] was 68.5% and the viability, T/C [24] was 66.3%. For the same compound, the viability, T/C [25] was 64.6%, the viability, T/C [26] was 57.9% and the viability, T/C [27] was 62%. For the same compound, the viability, T/C [28] was 52.1%, the viability, T/C [29] was 59% and the viability, T/C [30] was 54.4%. For the same compound, the viability, T/C [31] was 50.7%, the viability, T/C [32] was 49.8% and the viability, T/C [33] was 49.3%. For the same compound, the viability, T/C [34] was 51.8%, the viability, T/C [35] was 51% and the viability, T/C [36] was 41.8%.

O=C(c1cc(Cc2n[nH]c(=O)c3ccccc23)ccc1F)N1CCN(C(=O)C2CC2)CC1 + Cc1cnc(CNC(=O)c2c(=O)c3ccc(N4CCCN(C)CC4)nc3n3c2sc2ccccc23)cn1 showed an IC50 (second compound 0.0316 µM) greater than 10 µM, an IC50 (second compound 0.1 µM) greater than 10 µM and an IC50 (second compound 0.316 µM) greater than 10 µM. For the same compound, the IC50 (second compound 1 µM) was greater than 10 µM, the IC50 (second compound 3.16 µM) was less than 0.0316 µM and the IC50 (second compound 10 µM) was less than 0.0316 µM. It also gave a viability, T/C [1] of 92%, a viability, T/C [2] of 91% and a viability, T/C [3] of 96%. It also gave a viability, T/C [4] of 80.2%, a viability, T/C [5] of 81.4% and a viability, T/C [6] of 68.9%. The viability, T/C [7] was 86.3%, the viability, T/C [8] was 80.6% and the viability, T/C [9] was 82.8%. For the same compound, the viability, T/C [10] was 70.3%, the viability, T/C [11] was 71.4% and the viability, T/C [12] was 56.4%. For the same compound, the viability, T/C [13] was 71.8%, the viability, T/C [14] was 77.9% and the viability, T/C [15] was 73.4%. The viability, T/C [16] was 78.1%, the viability, T/C [17] was 73.3% and the viability, T/C [18] was 58.1%. It also gave a viability, T/C [19] of 68.2%, a viability, T/C [20] of 64.2% and a viability, T/C [21] of 59.4%. The viability, T/C [22] was 64.3%, the viability, T/C [23] was 60.9% and the viability, T/C [24] was 54.1%. It also gave a viability, T/C [25] of 47.9%, a viability, T/C [26] of 50.1% and a viability, T/C [27] of 52.2%. It also gave a viability, T/C [28] of 56.8%, a viability, T/C [29] of 52.3% and a viability, T/C [30] of 48.8%. For the same compound, the viability, T/C [31] was 46.1%, the viability, T/C [32] was 48.4% and the viability, T/C [33] was 47.4%. For the same compound, the viability, T/C [34] was 46.6%, the viability, T/C [35] was 50.9% and the viability, T/C [36] was 41.8%.
